Data reported in patent US20220409629A1, “BENZODIAZEPINE DERIVATIVES FOR TREATING A RESPIRATORY SYNCYTIAL VIRUS (RSV) INFECTION” (priority 2019, published 2022).

Experiments:
RSV A2 = test: RSV plaque reduction assay; format: cell-based, respiratory syncytial virus (RSV); details: human respiratory syncytial virus, HepG2; Hep-G2 cells, RSV A2, mean of at least two experiments
How it was run: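 RSV A2 (100 PFU/well) premixed with eight serial compound dilutions, added to confluent Hep-G2 monolayers for 2 h at 37° C, then held 2 days under CMC overlay containing compound (DMEM, 2% FBS). Plaques immunostained (HRP/TrueBlue) and counted; EC50 is 50% reduction versus virus control from 4-parameter fit, mean of ≥2 experiments.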

Cell cytotoxicity CC50 = format: cell-based; details: human; mean of at least two experiments
[1] = Liver microsomal stability, rat; format: in vitro ADME; details: pH 7.4; rat liver microsomes, 0.5 mg/mL protein, 1 μM compound, NADPH; >80% remaining at 45 min denoted >140; read-out: Liver Microsomal Stability: t1/2 (min); rat
Procedure: (§1) Compounds were subjected to the following assays to investigate liver microsomal stability, permeability and plasma protein binding.
(§2) Pooled liver microsomes were purchased from a reputable commercial supplier and stored at −80° C. prior to use. Microsomes (final protein concentration 0.5 mg/mL), 0.1 M phosphate buffer pH 7.4 and test compound (final substrate concentration 1 μM; final DMSO concentration 0.25%) were pre-incubated at 37° C. prior to the addition of NADPH (final concentration 1 mM) to initiate the reaction. The final incubation volume was 50 μL. A control incubation was included for each compound tested where 0.1 M phosphate buffer pH 7.4 was added instead of NADPH (minus NADPH). Two control compounds were included with each species. All incubations were performed singularly for each test compound. Each compound was incubated for 0, 5, 15, 30 and 45 min. The control (minus NADPH) was incubated for 45 min only. The reactions were stopped by transferring incubate into acetonitrile at the appropriate time points, in a 1:3 ratio. The termination plates are centrifuged at 3,000 rpm for 20 min at 4° C. to precipitate the protein. Following protein precipitation, the sample supernatants were combined in cassettes of up to 4 compounds, internal standard added, and samples analysed by LC-MS/MS. From a plot of ln peak area ratio (compound peak area/internal standard peak area) against time, the gradient of the line was determined. Subsequently, half-life (t1/2) and intrinsic clearance (CLint) were calculated.

[2] = Liver microsomal stability, dog; format: in vitro ADME; details: pH 7.4; dog liver microsomes, 0.5 mg/mL protein, 1 μM compound, NADPH; >80% remaining at 45 min denoted >140; read-out: Liver Microsomal Stability: t1/2 (min); dog
Procedure: as §1, §2

[3] = Liver microsomal stability, human; format: in vitro ADME; details: pH 7.4; human liver microsomes, 0.5 mg/mL protein, 1 μM compound, NADPH; >80% remaining at 45 min denoted >140; read-out: Liver Microsomal Stability: t1/2 (min); human
Procedure: as §1, §2

[4] = Liver hepatocyte stability, rat; format: in vitro ADME; details: rat hepatocytes, 3 μM compound, 60 min, >80% remaining at 60 min denoted >186, read-out: Liver Hepatocyte Stability: t1/2 (min)
Procedure: (§3) Cryopreserved pooled hepatocytes were purchased from a reputable commercial supplier and stored in liquid nitrogen prior to use. Williams E media supplemented with 2 mM L-glutamine and 25 mM HEPES and test compound (final substrate concentration 3 μM; final DMSO concentration 0.25%) are pre-incubated at 37° C. prior to the addition of a suspension of cryopreserved hepatocytes (final cell density 0.5×10^6 viable cells/mL in Williams E media supplemented with 2 mM L-glutamine and 25 mM HEPES) to initiate the reaction. The final incubation volume is 500 μL. Two control compounds were included with each species, alongside appropriate vehicle control. The reactions are stopped by transferring 50 μL of incubate to 100 μL acetonitrile containing internal standard at the appropriate time points. Samples were removed at 6 time points (0, 5, 15, 30, 45 and 60 min) over the course of a 60 min experiment. The termination plates are centrifuged at 2500 rpm at 4° C. for 30 min to precipitate the protein. Following protein precipitation, the sample supernatants were combined in cassettes of up to 4 compounds and analysed using generic LC-MS/MS conditions. From a plot of ln peak area ratio (compound peak area/internal standard peak area) against time, the gradient of the line is determined. Subsequently, half-life (t1/2) and intrinsic clearance (CLint) were calculated.

[5] = Liver hepatocyte stability, dog; format: in vitro ADME; details: dog hepatocytes, 3 μM compound, 60 min, >80% remaining at 60 min denoted >186, read-out: Liver Hepatocyte Stability: t1/2 (min)
Procedure: as §3

[6] = Liver hepatocyte stability, human; format: in vitro ADME; details: human hepatocytes, 3 μM compound, 60 min, >80% remaining at 60 min denoted >186, read-out: Liver Hepatocyte Stability: t1/2 (min)
Procedure: as §3

[7] = Rat pharmacokinetics in vivo; details: male Sprague Dawley rats; for C 8 h / Cmax: doses 1 mg/kg (IV) and 10 mg/kg (PO); for Vd / clearance / bioavailability / half-life / AUC(0-t) / Cmax: rat, in vivo; for AUC(0-t): read-out: PO AUClast
Procedure: The pharmacokinetics of compounds were studied in vivo in rats at doses of 1 mg/kg (IV) and 10 mg/kg (PO).
Male rats (Sprague Dawley) surgically prepared with a jugular vein cannula were treated with experimental compounds via intravenous administration (IV; n=3; 1 mg/kg) or oral administration (PO; n=3; 10 mg/kg). Compounds were formulated as a solution in 40:60 dimethylacetamide:saline (IV administration), a suspension in 1% methyl cellulose (viscosity: 15 cP), 0.1% Tween80 in water (PO administration: Example 3), a solution in 10% DMSO/10% Cremaphor/80% water (PO administration: Examples 4, 11, 21, 23, 25, 26, 32) or a solution in 10% DMSO/20% Cremaphor/70% water (PO administration: Examples 19, 20, 22, 24, 30). […] Serial blood samples were collected via the cannula at 0.02, 0.08, 0.25, 0.5, 1, 2, 4, 6, 8 and 24 h post IV dosing of compound, and at 0.08, 0.25, 0.5, 1, 2, 4, 6, 8 and 24 h post oral dosing of compound, and plasma was prepared by centrifugation and stored immediately at −80° C. Samples were subsequently thawed, prepared for analysis by protein precipitation with acetonitrile, and analysed by tandem LCMS using electrospray ionisation using a matrix-matched calibration curve. PK parameters were calculated from the resulting data.

[8] = IV 1 mg/kg, read-out: IV t½ (converted)
[9] = PO 10 mg/kg, read-out: PO t½ (converted)

SMILES | EC50 (RSV A2) [nM] | CC50 (Cell cytotoxicity CC50) [nM] | half-life [1] [min] | half-life [2] [min] | half-life [3] [min] | half-life [4] [min] | half-life [5] [min] | half-life [6] [min] | C 8 h [7] [ng/mL] | Vd ([7]; IV 1 mg/kg) [L/kg] | clearance ([7]; IV 1 mg/kg) [mL/min/kg] | bioavailability ([7]; IV 1 mg/kg, PO 10 mg/kg) [%] | half-life [7, 8] [h] | AUC(0-t) ([7]; PO 10 mg/kg) [ng·h/mL] | half-life [7, 9] [h] | Cmax [7] [ng/mL]
CCn1ncc(C(=O)N[C@H]2N=C(c3ccccc3)c3cccc(F)c3NC2=O)c1-c1ccc(NC2CC2)nc1F [Example 11, 5-[6-(Cyclopropylamino)-2-fluoropyridin-3-yl]-1-ethyl-N-[(3S)-9-fluoro-2-oxo-5-phenyl-1,3-dihydro-1,4-benzodiazepin-3-yl]pyrazole-4-carboxamide] | 62 | > 25000 | 76.3 | 24 | 82.4 | 151 | 48.2 | 194 | 673 | 2 | 13.9 | 93 | 3.2 | 11200 | 2.2 | 984
O=C(N[C@H]1N=C(c2ccccc2)c2cccc(F)c2NC1=O)c1cnn(C2COC2)c1-c1ccc(NC2CC2)nc1F [Example 19, 5-[6-(Cyclopropylamino)-2-fluoropyridin-3-yl]-1-(oxetan-3-yl)-N-[(3S)-9-fluoro-2-oxo-5-phenyl-1,3-dihydro-1,4-benzodiazepin-3-yl]pyrazole-4-carboxamide] | 37 | > 25000 | > 140 | 90.8 | 154 | 185 | 72.2 | > 186 | 315 | 1.6 | 14.3 | 64.6 | 1.7 | 7290 | 3 | 1320
CC(C)Nc1ccc(-c2c(C(=O)N[C@H]3N=C(c4ccccc4)c4ccccc4NC3=O)cnn2C2CCOCC2)c(F)n1 [Example 23, 5-[2-Fluoro-6-(propan-2-ylamino)pyridin-3-yl]-1-(oxan-4-yl)-N-[(3S)-2-oxo-5-phenyl-1,3-dihydro-1,4-benzodiazepin-3-yl]pyrazole-4-carboxamide] | 50 | > 25000 |  |  |  | 96.7 | 127 | > 186 | 146 | 1.7 | 12.2 | 34.7 | 2.2 | 4630 | 3 | 930
CCNc1ccc(-c2c(C(=O)N[C@H]3N=C(c4ccccc4)c4ccccc4NC3=O)cnn2C2CCOCC2)c(F)n1 [Example 42, 5-[6-(Ethylamino)-2-fluoropyridin-3-yl]-1-(oxan-4-yl)-N-[(3S)-2-oxo-5-phenyl-1,3-dihydro-1,4-benzodiazepin-3-yl]pyrazole-4-carboxamide] | 41 | > 25000 | 85.8 | 480 | 194 | 72.3 | 100 | 421 |  |  |  |  |  |  |  | 
O=C(N[C@H]1N=C(c2ccccc2)c2ccccc2NC1=O)c1cnn(C2CCOCC2)c1-c1cc(C2CC2)cnc1F [Example 50, 5-(5-Cyclopropyl-2-fluoropyridin-3-yl)-1-(oxan-4-yl)-N-[(3S)-2-oxo-5-phenyl-1,3-dihydro-1,4-benzodiazepin-3-yl]pyrazole-4-carboxamide] | 81 | > 25000 | 44.2 | 163 | 94.3 |  |  |  |  |  |  |  |  |  |  | 
O=C(N[C@H]1N=C(c2ccccc2)c2cccc(F)c2NC1=O)c1cnn(C2CCOCC2)c1-c1cc(C2CC2)cnc1F [Example 51, 5-(5-Cyclopropyl-2-fluoropyridin-3-yl)-N-[(3S)-9-fluoro-2-oxo-5-phenyl-1,3-dihydro-1,4-benzodiazepin-3-yl]-1-(oxan-4-yl)pyrazole-4-carboxamide] | 53 | > 7790 | 92.8 | 212 | 171 |  |  |  |  |  |  |  |  |  |  | 
CCc1ccc(-c2c(C(=O)N[C@H]3N=C(c4ccccc4)c4cccc(F)c4NC3=O)cnn2C2CCOCC2)c(F)n1 [Example 53, 5-(6-Ethyl-2-fluoropyridin-3-yl)-1-(oxan-4-yl)-N-[(3S)-9-fluoro-2-oxo-5-phenyl-1,3-dihydro-1,4-benzodiazepin-3-yl]pyrazole-4-carboxamide] | 72 | > 25000 | 200 | 183 | > 140 |  |  |  |  |  |  |  |  |  |  | 
CCOc1nn(CC)c(-c2ccccc2F)c1C(=O)N[C@H]1N=C(c2ccccc2)c2cccc(F)c2NC1=O [Example 55, 3-Ethoxy-1-ethyl-N-[(3S)-9-fluoro-2-oxo-5-phenyl-1,3-dihydro-1,4-benzodiazepin-3-yl]-5-(2-fluorophenyl)pyrazole-4-carboxamide] | 33 | > 25000 | 26.5 | 39 | 41.3 |  |  |  |  |  |  |  |  |  |  | 
CN1CCC(n2ncc(C(=O)N[C@H]3N=C(c4ccccc4)c4cccc(F)c4NC3=O)c2-c2ccc(NC3CC3)nc2F)CC1 [Example 57, 5-[6-(Cyclopropylamino)-2-fluoropyridin-3-yl]-N-[(3S)-9-fluoro-2-oxo-5-phenyl-1,3-dihydro-1,4-benzodiazepin-3-yl]-1-(1-methylpiperidin-4-yl)pyrazole-4-carboxamide] | 84 | > 9410 | 116 | 175 | 84.7 |  |  |  |  |  |  |  |  |  |  | 
